Assay: Conversion of prodrugs to NDMC in vivo (plasma and brain levels of NDMC by LC-MS/MS after oral dosing)
Description: Male, Sprauge-Dawly rats (200-225 grams, Harlan, San Diego, Calif.) implanted with jugular vein cannulae served as experimental subjects. Rats were fasted for approximately 16 hours and then dosed orally with one of several test compounds. All test compounds were administered at a fixed dose of 10 mg/kg (freebase) in a volume of 1 mL/kg. Venous blood samples were collected 0, 30, 60 and 120 min following test compound administration. Samples were placed into heparinized tubes and centrifuged to obtain plasma. Additionally, whole brains were harvested at the 120 min time point in order to determine brain levels of test compounds. Plasma samples, brains and any remaining dosing solutions were stored at −80° C. until analyzed.
The thawed plasma samples were processed by protein precipitation using acetonitrile. Following centrifugation the supernatant was diluted appropriately and transferred to the analysis deep well plate for analysis. […]
Calibration samples and samples were analyzed by LC-MS/MS using positive electrospray ionization. […]
Samples were analyzed using multiple reaction monitoring (MRM). […]
4.0.1 and the area under the curve (AUC0-120) of NDMC was calculated. In vivo conversion to NDMC was calculated from the dose-normalized ratio of AUC0-120 of NDMC following administration of pro-drug and NDMC, respectively.

In the case of `Clc1ccc2c(c1)N=C(N1CCNCC1)c1ccccc1N2` [NDMC, N-desmethylclozapine], the “Plasma AUC(0-120 min) of NDMC” value (male Sprague-Dawley rats, fasted, oral 10 mg/kg (freebase) of compound administered, plasma 0-120 min) is reported as 1.298 µM·h and the “Mean brain concentration of NDMC at 120 min (SD)” value (rats, oral 10 mg/kg, whole brain at 120 min, n = 3) is reported as 255 (56) nmol/(kg).

Source: patent US20070105836A1, “Prodrugs of muscarinic agonists and methods of treatment of neuropsychiatric disorders” (priority 2005, published 2007)
